Measurements published in PubChem BioAssay (NCI).
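Exposure lasted 48 hours, with cells grown in 96-well plates and compounds tested at five concentrations. Abbreviation: GI50, concentration required for 50% inhibition of growth. TGI is the concentration that stops growth completely.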

Columns and labels:
Assay in all cases: growth of human tumour cells (NCI), 48 h
[1] = tested on: OVCAR-8 ovarian
[2] = tested on: SF-295 CNS
[3] = tested on: TK-10 renal
[4] = tested on: M19-MEL melanoma
[5] = tested on: KM20L2 colon
[6] = tested on: UACC-62 melanoma
[7] = tested on: UO-31 renal
[8] = tested on: SNB-78 CNS
[9] = tested on: OVCAR-3 ovarian
[10] = tested on: CAKI-1 renal
[11] = tested on: MALME-3M melanoma
[12] = tested on: U251 CNS
[13] = tested on: SR leukemia
[14] = tested on: RPMI-8226 leukemia
[15] = tested on: HOP-18 NSCLC
[16] = tested on: M14 melanoma
[17] = tested on: SF-539 CNS
[18] = tested on: LXFL 529 NSCLC
[19] = tested on: OVCAR-5 ovarian
[20] = tested on: OVCAR-4 ovarian
[21] = tested on: 786-0 renal
[22] = tested on: SK-MEL-2 melanoma
[23] = tested on: NCI-H460 lung
[24] = tested on: COLO 205 colon
[25] = tested on: SNB-75 CNS
[26] = tested on: IGROV1 ovarian
[27] = tested on: DMS 114 small cell lung
[28] = tested on: SF-268 CNS
[29] = tested on: SN12C renal
[30] = tested on: SK-MEL-28 melanoma
[31] = tested on: SW-620 colon
[32] = tested on: NCI-H226 lung
[33] = tested on: HCT-15 colon
[34] = tested on: NCI-H522 lung
[35] = tested on: RXF 393 renal
[36] = tested on: HCC-2998 colon
[37] = tested on: A549 NSCLC
[38] = tested on: SNB-19 CNS
[39] = tested on: HCT-116 colon
[40] = tested on: DLD-1 colon
[41] = tested on: EKVX NSCLC
[42] = tested on: NCI-H23 lung

For `NCCN.NCCN.[Cl-].[O]=[Os+2]=[O]`, the GI50 [1] was > 100 µM, the TGI [1] was > 100 µM and the GI50 [2] was > 100 µM. The TGI [2] was > 100 µM, the GI50 [3] was > 100 µM and the TGI [3] was > 100 µM. The GI50 [4] was 12 µM, the TGI [4] was 28.8 µM and the GI50 [5] was > 100 µM. For the same molecule, the TGI [5] was > 100 µM, the GI50 [6] was > 100 µM and the TGI [6] was > 100 µM. For the same molecule, the GI50 [7] was > 100 µM, the TGI [7] was > 100 µM and the GI50 [8] was > 100 µM. For the same molecule, the TGI [8] was > 100 µM, the GI50 [9] was > 100 µM and the TGI [9] was > 100 µM. The GI50 [10] was > 100 µM, the TGI [10] was > 100 µM and the GI50 [11] was > 100 µM. The TGI [11] was > 100 µM, the GI50 [12] was > 100 µM and the TGI [12] was > 100 µM. The GI50 [13] was 67.4 µM, the TGI [13] was > 100 µM and the GI50 [14] was > 100 µM. The TGI [14] was > 100 µM, the GI50 [15] was > 100 µM and the TGI [15] was > 100 µM. The GI50 [16] was > 100 µM, the TGI [16] was > 100 µM and the GI50 [17] was > 100 µM. For the same molecule, the TGI [17] was > 100 µM, the GI50 [18] was > 100 µM and the TGI [18] was > 100 µM. The GI50 [19] was > 100 µM, the TGI [19] was > 100 µM and the GI50 [20] was > 100 µM. For the same molecule, the TGI [20] was > 100 µM, the GI50 [21] was > 100 µM and the TGI [21] was > 100 µM. The GI50 [22] was > 100 µM, the TGI [22] was > 100 µM and the GI50 [23] was > 100 µM. For the same molecule, the TGI [23] was > 100 µM, the GI50 [24] was > 100 µM and the TGI [24] was > 100 µM. For the same molecule, the GI50 [25] was 71 µM, the TGI [25] was > 100 µM and the GI50 [26] was > 100 µM. The TGI [26] was > 100 µM, the GI50 [27] was > 100 µM and the TGI [27] was > 100 µM. For the same molecule, the GI50 [28] was > 100 µM, the TGI [28] was > 100 µM and the GI50 [29] was > 100 µM. For the same molecule, the TGI [29] was > 100 µM, the GI50 [30] was > 100 µM and the TGI [30] was > 100 µM. For the same molecule, the GI50 [31] was > 100 µM, the TGI [31] was > 100 µM and the GI50 [32] was > 100 µM. For the same molecule, the TGI [32] was > 100 µM, the GI50 [33] was > 100 µM and the TGI [33] was > 100 µM. For the same molecule, the GI50 [34] was > 100 µM, the TGI [34] was > 100 µM and the GI50 [35] was > 100 µM. The TGI [35] was > 100 µM, the GI50 [36] was > 100 µM and the TGI [36] was > 100 µM. The GI50 [37] was > 100 µM, the TGI [37] was > 100 µM and the GI50 [38] was > 100 µM. For the same molecule, the TGI [38] was > 100 µM, the GI50 [39] was > 100 µM and the TGI [39] was > 100 µM. For the same molecule, the GI50 [40] was > 100 µM, the TGI [40] was > 100 µM and the GI50 [41] was > 100 µM. The TGI [41] was > 100 µM, the GI50 [42] was > 100 µM and the TGI [42] was > 100 µM.
